# According to article PMC5000474, “Discovery of a Carbazole-Derived Lead Drug for Human African Trypanosomiasis” (Scientific Reports, 2016):
# Like-named read-outs stand apart in the source and are kept apart here.
# Assays:
# [1] = system: bloodstream T. brucei; assay: Trypanosome proliferation inhibition assay (GI50); format: cell-based, Trypanosoma brucei brucei; settings: for Selectivity Index HL GI50/Tbb GI50: ratio between HeLa and T. brucei GI50
# Description: T. brucei (brucei or rhodesiense) were seeded at 4 × 10^3 cells/mL in 24-well plates (0.5 or 1 mL of culture per well). […] Then, at least five drug concentrations[26] covering this range was used for subsequent assays. Each concentration was tested in duplicate. […] Cells were counted only if they were motile. […] Final mean GI50 values were calculated based on two independent experiments, each with at least five data points performed in duplicate. T. brucei were seeded at 4 × 10^3 cells/mL and dispensed into wells of a 384-well black plate (Greiner; Frickenhausen, Germany). Wells in two columns per plate were filled with 50 μL of HMI-9 medium using a Multidrop Combi (Thermo Scientific; Waltham, MA) to serve as a background control. Fifty microliters of trypanosome suspension was added to separate columns using a Multidrop Combi. Lastly, an additional 50 μL of cell resuspension was added to only the top row of wells that contained cells (row A, labeled by Greiner), using an Xplorer multichannel pipette (Eppendorf; Hamburg-Eppendorf, Germany) bringing final volumes of cell-containing wells in the top row to 100 μL. […] St. Louis, MO). A microliter of DMSO (25%) or diluted drug was added to wells containing cells of the top row using an Xplorer multichannel pipette. Each concentration was tested in duplicate. Cells and DMSO/drug were mixed and serially diluted 1:2 down the rows of the plate. […] Cells were lysed by addition of 15 μL of SYBR Green I (Invitrogen; Carlsbad, CA) in lysis solution[30] (5X SYBR Green I, 30 mM Tris pH 7.5, 7.5 mM EDTA, 0.012% saponin and 0.12% Triton X-100) to each well. […] Data collected was exported to Excel from Ascent Software (Thermo Scientific). Base-line corrected non-linear regression graphs were generated and GI50 values determined using GraphPad Prism (GraphPad Software; La Jolla, CA). Final mean GI50 values were calculated based on four separate biological replicates.
# [2] = system: T. b. rhodesiense; assay: Trypanosome proliferation inhibition assay (GI50), T. b. rhodesiense; format: cell-based; settings: Trypanosoma brucei, 4 × 10^3 cells/mL, 24-well plates, 48 h, read-out: Growth inhibition (GI50) ± SD T. b. rhodesiense
# Description: T. brucei (brucei or rhodesiense) were seeded at 4 × 10^3 cells/mL in 24-well plates (0.5 or 1 mL of culture per well). […] Compounds were initially tested at 10 nM, 100 nM or 1 μM, to define a range where cell density responded to drug concentrations. Then, at least five drug concentrations[26] covering this range was used for subsequent assays. Each concentration was tested in duplicate. Cell density was determined with a Neubauer Bright-Line hemocytometer (Sigma) after 48 h. Cells were counted only if they were motile. […] Final mean GI50 values were calculated based on two independent experiments, each with at least five data points performed in duplicate.
# [3] = system: HeLa cells; assay: HeLa cell proliferation inhibition assay (GI50); format: cell-based; settings: Homo sapiens; HeLa 1 × 10^5 cells/mL, 24 h with compound; read-out: Growth inhibition (GI50) ± SD HeLa
# Description: HeLa cells were seeded to 1 × 10^5 cells/mL in 24-well plates (1 mL of culture per well) and incubated drug-free for 24 h at 37 °C, 5% CO2. DMSO or stock inhibitor concentration (5 μL) was added to obtain the specified final concentrations. Cells were incubated for 24 h[28][29] at 37 °C, 5% CO2. Next, cells were trypsinized and cell density was determined with a Neubauer Bright-line hemocytometer as described[9]. GI50 for each compound was calculated by plotting data for the cell counts in Excel as described for T. brucei above. Data were obtained from two independent experiments, four separate biological replicates.
# [4] = system: T. brucei; assay: Mouse model of HAT: oral treatment of T. brucei-infected mice; format: in vivo, Trypanosoma brucei brucei; settings: for survival of infected mice compared to control untreated animals: administered orally; for reduction of parasitemia: day six, after full oral dose days two to five (2: 20 mg/kg, 3: 25 mg/kg); for increase in average survival: infected mice treated orally, versus vehicle (5 days on average); for cure of T. brucei infection in mice: oral administration
# Description: Cultured T. brucei were pelleted and resuspended in cold phosphate buffered saline (PBS) containing 1% glucose at 1 × 10^5 cells/mL. Female Swiss-Webster mice (8–10 weeks old, 20–25 g, n = 4 per group) (Harlan; Indianapolis, IN) were infected intraperitoneally (i.p.) with 10^4 bloodstream trypanosomes in 100 μL of PBS using 26G needles. To avoid damage to T. brucei cells, mechanical stress during administration was minimized by avoiding repeated pulling and pushing movements of cell resuspension through the syringe needle. Starting 48 h post-infection, and every 1–8 days thereafter, parasitemia was monitored by collecting 3 μL of blood from the tail vein of mice. Blood samples were supplemented with 21 μL of RBC Lysis Solution (Qiagen; Valencia, CA) and incubated at room temperature for 15–45 min. prior to observing for parasites using a Neubauer Bright-line hemocytometer. Mice with parasitemia greater than 2 × 10^8 trypanosomes/mL were euthanized. […] To compare animal survival in treatment and vehicle control groups, Student’s t-test was performed in Excel to generate p-values. All animal experiments were conducted with the approval of the Institutional Animal Care and Use Committee (IACUC) at the University of Georgia. All experimental protocols involving animals were carried out in accordance with the approved guidelines of the IACUC at the University of Georgia.
# Formulated compounds or vehicle control (0.2% HPMC) were administered by oral gavage starting 24 h after mouse infection with T. brucei. Animals were weighed before each compound administration, and dose volume was adjusted based on body weight (10 mL/kg) to deliver accurate doses of test compounds. The treatment was ceased for animals when normalized body weight (NBW) loss exceeded 20%, and resumed after NBW recovery above 90%. […] 1: 30 mg/kg or 40 mg/kg, treatment regimen of “4 days on/2 days off” for a total of 14 doses; 2: 20 mg/kg (days 2–5), 10 mg/kg (day 7), 5 mg/kg (days 8–9), no drug (day 6, days 10–13); 3: 25 mg/kg (days 2–5), 12.5 mg/kg (day 7), 6.25 mg/kg (days 8–10), no drug (day 6, days 11–13). Scheduled euthanasia by CO2 overdose followed by incision to form a bilateral pneumothorax was conducted on mice considered cured 30 days after the end of experimental treatment (see previous section). Mice with parasitemia greater than 2 × 10^8 trypanosomes/mL or NBW losses ≥30% were subjected to unscheduled euthanasia.
# [5] = Normalized body weight of treated T. brucei-infected mice; format: in vivo; settings: oral 2 (20 mg/kg) or 3 (25 mg/kg)
# Description: Formulated compounds or vehicle control (0.2% HPMC) were administered by oral gavage starting 24 h after mouse infection with T. brucei[33][34]. Animals were weighed before each compound administration, and dose volume was adjusted based on body weight (10 mL/kg) to deliver accurate doses of test compounds. The treatment was ceased for animals when normalized body weight (NBW) loss exceeded 20%, and resumed after NBW recovery above 90%. […] 1: 30 mg/kg or 40 mg/kg, treatment regimen of “4 days on/2 days off” for a total of 14 doses; 2: 20 mg/kg (days 2–5), 10 mg/kg (day 7), 5 mg/kg (days 8–9), no drug (day 6, days 10–13); 3: 25 mg/kg (days 2–5), 12.5 mg/kg (day 7), 6.25 mg/kg (days 8–10), no drug (day 6, days 11–13). Scheduled euthanasia by CO2 overdose followed by incision to form a bilateral pneumothorax was conducted on mice considered cured 30 days after the end of experimental treatment (see previous section). Mice with parasitemia greater than 2 × 10^8 trypanosomes/mL or NBW losses ≥30% were subjected to unscheduled euthanasia.
# [6] = ref Cleveland BioLabs, unpublished data; cited from earlier work
# [7] = system: T. brucei; assay: Thirty-hour treatment of trypanosomes: cell density, kinetoplast/nucleus copy number, DNA content; format: cell-based, Trypanosoma brucei brucei; settings: 200 nM
# Description: At stated times trypanosome density was determined using a Z2 Coulter Counter (Beckman). […] At the same time-points a 5 mL aliquot (5 × 10^5–1 × 10^7 cells total) was collected and analyzed by flow cytometry as described below. All data reported were obtained from three independent experiments.
# T. brucei (between 5 × 10^5 cells to 1 × 10^7 cells) in 5 mL of culture medium were centrifuged (3 min, 3000 × g at room temperature) to pellet cells and washed once with 1 mL of PBS containing 10 mM glucose. Cells were fixed in 1 mL of 70% methanol supplemented by PBS at 4 °C for up to two weeks, centrifuged (3 min, 2000 × g at room temperature), and resuspended at 5 × 10^5 cells/mL in 1X PBS. RNase A and propidium iodide (PI) were added to each sample to final concentrations of 500 μg/mL and 7.5 μM, respectively, and the suspension was protected from light during incubation for 1 h at 37 °C[35]. Samples were placed on ice for 15 min and data was immediately collected on a CyAn ADP Analyzer (Beckman Coulter; Hialeah, FL). During analysis with FlowJo software (FlowJo, LLC; Ashland, OR), trypanosomes were gated from background debris by plotting “events” as forward scatter vs. side scatter (both on the logarithmic scale). Single trypanosomes were gated for cell cycle analysis from cells stuck together (“doublets”) by plotting trypanosome events as PI fluorescence vs. pulse width. Distribution of trypanosomes into groups containing different amounts of chromosomal DNA was performed using Watson-Pragmatic algorithm in FlowJo. DNA distribution values from independent experiments were averaged with error bars generated and graphed in Excel. To compare effects of drug treatment on DNA content of experimental and vehicle control groups, Student’s t-test was performed in Excel to generate p-values.
# [8] = Trypanosoma brucei, 48 h, T. brucei 4 × 10^3 cells/mL, 48 h, Fig. 1, read-out: GI50
# [9] = Trypanosoma brucei, 48 h, 4 × 10^3 cells/mL, 24-well plates, 48 h, Table 1, read-out: Growth inhibition (GI50) ± SD T. b. brucei
# [10] = Trypanosoma brucei, against T. brucei, read-out: GI50
smiles,measurement,setting,value
CCN(CC)CCn1c2ccc(C#N)cc2c2cc(C#N)ccc21 [CBL0018],GI50,[1]; [8],250 ± 20 nM
O=C1CCc2c1ccc1c2c2c3c(ccc2n1CCN1CCOCC1)C(=O)CC3 [CBL0207],GI50,[1]; [8],17 ± 0.2 nM
CC(=O)c1cc2c3c4c(ccc3n(CCCN(C)C)c2cc1O)C(=O)CC4 [Compound 2],GI50,[1]; [9],7.4 ± 0.2 nM
same,GI50,[1]; [8],< 10 nM
same,Selectivity Index HL GI50/Tbb GI50,[1],78
same,GI50,[2],13 ± 3 nM
same,GI50,[3],580 ± 100 nM
same,survival of infected mice compared to control untreated animals,[4],increased survival
same,reduction of parasitemia,[4],100 fold
same,increase in average survival,[4],2 fold
same,cure of T. brucei infection in mice,[4],failed to cure
same,weight loss of normal body weight (NBW),[5],exceeding 10%
same,oral bioavailability,[6],orally bioavailable
CC[n+]1c(-c2ccccc2)c2cc(N)ccc2c2ccc(N)cc21 [ethidium bromide],formation of dyskinetoplastic trypanosomes (0K1N),[7]; 30 h time-course,produced dyskinetoplastic trypanosomes
same,effect on nuclear DNA content compared to vehicle,"[7]; 30 h treatment, flow cytometry",little or no effect
same,increase in cell density during 30 h treatment,[7]; T. brucei seeded 1 × 10^5 cells/mL,2.5 fold
CCCNCCCn1c2ccc3c(c2c2c4c(ccc21)C(=O)CC4)CCC3=O [Compound 3],GI50,[1]; [9],2.2 ± 0.1 nM
same,GI50,[1]; [8],< 10 nM
same,Selectivity Index HL GI50/Tbb GI50,[1],236
same,GI50,[2],3.6 ± 0.3 nM
same,GI50,[3],520 ± 40 nM
same,survival of infected mice compared to control untreated animals,[4],increased survival
same,reduction of parasitemia,[4],100 fold
same,increase in average survival,[4],2 fold
same,cure of T. brucei infection in mice,[4],failed to cure
same,weight loss of normal body weight (NBW),[5],exceeding 10%
same,oral bioavailability,[6],orally bioavailable
CCN(CC)CCn1c2ccc3c(c2c2c4c(ccc21)C(=O)CC4)CCC3=O [CBL0100],GI50,[1]; [8],0.97 ± 0.08 nM
CC(C)NCCn1c2ccc3c(c2c2c4c(ccc21)C(=O)CC4)CCC3=O [CBL0197],GI50,[1]; [8],0.95 ± 0.05 nM
CC(=O)c1ccc2c(c1)c1c3c(ccc1n2CC[C@@H]1CCCN1C)C(=O)CC3 [CBL0211],GI50,[1]; [8],2.3 ± 0.58 nM
CC(=O)c1ccc2c(c1)c1cc(C(C)=O)ccc1n2CCCN(C)C [CBL0031],GI50,[1]; [8],260 ± 0.64 nM
CC(=O)c1cc2c3c4c(ccc3n(CCCN(C)C)c2cc1O)C(=O)N(C)C4 [CBL0167],GI50,"[1]; T. brucei 4 × 10^3 cells/mL, 48 h, Fig. 1, read-out: GI50",21 ± 2.9 nM
same,GI50,[1]; [8],< 25 nM
CC(=O)c1ccc2c(c1)c1cc(C(C)=O)ccc1n2CCCNC(C)C [CBL0127],GI50,[1]; [8],170 ± 3 nM
CCN(CC)CCCC(C)n1c2ccc3c(c2c2c4c(ccc21)C(=O)CC4)CCC3=O (stereo not shown) [CBL0100Q],GI50,[1]; [8],240 ± 2 nM
CN(C)CCCn1c2ccc3c(c2c2c4c(ccc21)C(=O)CC4)CCC3=O [CBL0253],GI50,[1]; [8],0.74 ± 0.27 nM
CCCNCCCn1c2ccc(C(C)=O)cc2c2c3c(ccc21)C(=O)CC3 [CBL0175],GI50,[1]; [8],9.5 ± 1.4 nM
CC(=O)c1cc2c3cc(C(C)=O)c(O)cc3n(CCCN(C)C)c2cc1O [CBL0174],GI50,[1]; [8],25 ± 1.9 nM
CC(=O)c1cc2c3cc(C(C)=O)c(O)cc3n(CCNC(C)C)c2cc1O [CBL0187],GI50,[1]; [8],33 ± 2.1 nM
CC(=O)c1ccc2c(c1)c1c3c(ccc1n2CCNC(C)C)C(=O)CC3 [CBL0252],GI50,[1]; [8],8.5 ± 0.22 nM
CC(=O)c1ccc2c(c1)c1cc(C(C)=O)ccc1n2CCC1CCCN1C (stereo not shown) [CBL0053],GI50,[1]; [8],58 ± 5.3 nM
CCN(CC)CCn1c2ccc(C3=NCCN3)cc2c2cc(C3=NCCN3)ccc21 [CBL0030],GI50,[1]; [8],1500 ± 210 nM
CC(=O)c1ccc2c(c1)c1c3c(ccc1n2CC[C@H]1CCCN1C)C(=O)CC3 [CBL0212],GI50,[1]; [8],8.2 ± 0.23 nM
CCN(CC)CCn1c2ccc(C(C)=O)cc2c2cc(C(C)=O)ccc21 [CBL0014],GI50,[1]; [8],76 ± 20 nM
CN(C)CCCn1c2ccccc2c2cnccc21 [CBL0144],GI50,[1]; [10],> 10000 nM
CCN(CC)CCn1c2ccccc2c2cnccc21 [CBL0139],GI50,[1]; [10],> 10000 nM
CCNCCCn1c2ccc3c(c2c2c4c(ccc21)C(=O)CC4)CCC3=O [CBL0198],GI50,[1]; [8],2.8 ± 0.49 nM
CCOC(=O)N1CCC(n2c3ccc(C(C)=O)cc3c3cc(C(C)=O)ccc32)CC1 [CBL0149],GI50,[1]; [8],5300 ± 1500 nM
CON=C1CCc2c1ccc1c2c2c3c(ccc2n1CCN1CCOCC1)C(=NOC)CC3 [CBL0209],GI50,[1]; [8],460 ± 18 nM
